Results as given in patent publication US6423887B1, “Glyphosate tolerant fescue grass variety” (Pure Seed Testing, Inc., priority 2001, dated 2002).

What was measured:
Format in all cases: in vivo, Festuca arundinacea
[1] = tested on: seedlings, progenies of the 23 5RU clones; assay: Greenhouse glyphosate screening of seedlings; conditions: one quart per acre, sprayed at the three to four leaf stage, 74 out of 150
5HU tall fescue = assay: Glyphosate tolerance field trial, turf seeded fall 1998 near Hubbard, Oreg.; conditions: for Herbicide damage: scale 1-9, 9=no glyphosate damage; for Summer Stress: scale 1-9; for Turf quality (no herbicide): scale 1-9, 9=ideal quality
Description: (§1) The following tables show examples of field trials in which the glyphosate resistance characteristics of the Tomahawk RT variety were examined and compared to currently used tall fescue grass varieties. Grasses were seeded in the fall of 1998 near Hubbard, Oreg. and rated between November 1998 and September 1999.
(§2) 2, 1999. The score ratings are based on a scale of 1 to 9. For herbicide damage: 9 =no glyphosate damage; 8-7=10-20% yellowing; 6-5=30-40% yellowing with minor growth retardation; 4-3=50-60% yellowing with growth retardation; 2-1=70-90% yellowing with dead turf. For turf quality: 9=best turf quality, 0=dead turf.
(§3) Grasses were sprayed with 1 pint per acre glyphosate on Nov. 19, 1998 and ½ pint (8 oz.) per acre on Mar. 2, 1999. The effect of the herbicide application on turf quality and on glyphosate damage is shown, using a scale of 1 to 9 as described for Table 3 (9: ideal quality; no disease; no glyphosate damage). In addition, the percent of damage due to herbicide application (which indicates yellowing, stunting, and death) is shown.

Tar Heel tall fescue = assay: as above; conditions: for Herbicide damage: scale 1-9, 9=no glyphosate damage; for Summer Stress: scale 1-9; for Turf quality (no herbicide): scale 1-9, 9=ideal quality
Description: as §1, §2, §3

Kentucky 31 tall fescue = assay: as above; conditions: for Herbicide damage: scale 1-9, 9=no glyphosate damage; for Summer Stress: scale 1-9; for Turf quality (no herbicide): scale 1-9, 9=ideal quality
Description: as §1, §2, §3

Tomahawk E tall fescue = assay: as above; conditions: for Herbicide damage: scale 1-9, 9=no glyphosate damage; for Summer Stress: scale 1-9; for Turf quality (no herbicide): scale 1-9, 9=ideal quality
Description: as §1, §2, §3

Pure Gold tall fescue = assay: as above; conditions: for Herbicide damage: scale 1-9, 9=no glyphosate damage; for Summer Stress: scale 1-9; for Turf quality (no herbicide): scale 1-9, 9=ideal quality
Description: as §1, §2, §3

Wolfpack tall fescue = assay: as above; conditions: for Herbicide damage: scale 1-9, 9=no glyphosate damage; for Summer Stress: scale 1-9; for Turf quality (no herbicide): scale 1-9, 9=ideal quality
Description: as §1, §2, §3

Tomahawk RT tall fescue = assay: as above; conditions: for Herbicide damage: scale 1-9, 9=no glyphosate damage; for Summer Stress: scale 1-9; for Turf quality (no herbicide): scale 1-9, 9=ideal quality
Description: as §1, §2, §3

[2] = tested on: cloned survivors from Coronado, Apache II and Tomahawk; assay: Glyphosate screening of vegetative clones in cell pack planting flats; conditions: 1 quart per acre glyphosate with WA-100, clones in cell pack planting flats, sprayed 1 month after cloning
[3] = 1/2 pint (8 oz.) per acre sprayed Mar. 2, 1999, rated 1 April
[4] = 1/2 pint (8 oz.) per acre sprayed Mar. 2, 1999, rated 20 April
[5] = 1/2 pint (8 oz.) per acre sprayed Mar. 2, 1999, rated 24 Sept
[6] = 1 pint per acre Nov. 19, 1998 and 1/2 pint per acre Mar. 2, 1999, rated 1 Apr
[7] = 1 pint per acre Nov. 19, 1998 and 1/2 pint per acre Mar. 2, 1999, rated 1 May
[8] = 1 pint per acre Nov. 19, 1998 and 1/2 pint per acre Mar. 2, 1999, rated 20 Apr
[9] = 1 pint per acre Nov. 19, 1998 and 1/2 pint per acre Mar. 2, 1999, rated 24 Sept
[10] = 1 pint per acre sprayed Nov. 19, 1998, rated 2 Mar
[11] = 1 pint per acre sprayed Nov. 19, 1998, rated 26 Dec, % damage (yellowing, stunting, death)
[12] = 1 pint per acre sprayed Nov. 19, 1998, rated 26 Jan
[13] = 1/2 pint per acre of glyphosate herbicide (41% w/v glyphosate), field, January through September 1999
[14] = 1 pint per acre of agricultural formulation (about 0.056 g per square meter glyphosate)

Compound: O=C(O)CNCP(=O)(O)O [Glyphosate, N-(phosphonomethyl) glycine]
- seedlings survived [1]: 50%
- Herbicide damage (5HU tall fescue; [3]): 5.3
- Herbicide damage (5HU tall fescue; [4]): 4.5
- Summer Stress (5HU tall fescue; [5]): 6.3
- Herbicide damage % (5HU tall fescue; [6]): 33.8%
- Turf quality (no herbicide) (5HU tall fescue; [6]): 2.8
- Turf quality (no herbicide) (5HU tall fescue; [7]): 4.8
- Turf quality (no herbicide) (5HU tall fescue; [8]): 3.8
- Summer Stress (5HU tall fescue; [9]): 7.0
- Herbicide damage (5HU tall fescue; [10]): 3.5
- Herbicide damage % (5HU tall fescue; [11]): 45.0%
- Turf quality (no herbicide) (5HU tall fescue; [12]): 3.3
- Herbicide damage (5HU tall fescue; [12]): 3.8
- Herbicide damage (Tar Heel tall fescue; [3]): 5.0
- Herbicide damage (Tar Heel tall fescue; [4]): 5.0
- Summer Stress (Tar Heel tall fescue; [5]): 7.0
- Herbicide damage % (Tar Heel tall fescue; [6]): 40.0%
- Turf quality (no herbicide) (Tar Heel tall fescue; [6]): 3.0
- Turf quality (no herbicide) (Tar Heel tall fescue; [7]): 5.0
- Turf quality (no herbicide) (Tar Heel tall fescue; [8]): 4.0
- Summer Stress (Tar Heel tall fescue; [9]): 7.5
- Herbicide damage (Tar Heel tall fescue; [10]): 3.3
- Herbicide damage % (Tar Heel tall fescue; [11]): 76.3%
- Turf quality (no herbicide) (Tar Heel tall fescue; [12]): 2.0
- Herbicide damage (Tar Heel tall fescue; [12]): 2.3
- Herbicide damage (Kentucky 31 tall fescue; [3]): 3.3
- Herbicide damage (Kentucky 31 tall fescue; [4]): 3.8
- Summer Stress (Kentucky 31 tall fescue; [5]): 4.5
- Herbicide damage % (Kentucky 31 tall fescue; [6]): 33.8%
- Turf quality (no herbicide) (Kentucky 31 tall fescue; [6]): 2.0
- Turf quality (no herbicide) (Kentucky 31 tall fescue; [7]): 4.0
- Turf quality (no herbicide) (Kentucky 31 tall fescue; [8]): 3.3
- Summer Stress (Kentucky 31 tall fescue; [9]): 5.8
- Herbicide damage (Kentucky 31 tall fescue; [10]): 2.8
- Herbicide damage % (Kentucky 31 tall fescue; [11]): 75.0%
- Turf quality (no herbicide) (Kentucky 31 tall fescue; [12]): 2.0
- Herbicide damage (Kentucky 31 tall fescue; [12]): 2.0
- Herbicide damage (Tomahawk E tall fescue; [3]): 4.3
- Herbicide damage (Tomahawk E tall fescue; [4]): 3.8
- Summer Stress (Tomahawk E tall fescue; [5]): 6.3
- Herbicide damage % (Tomahawk E tall fescue; [6]): 36.3%
- Turf quality (no herbicide) (Tomahawk E tall fescue; [6]): 2.8
- Turf quality (no herbicide) (Tomahawk E tall fescue; [7]): 4.5
- Turf quality (no herbicide) (Tomahawk E tall fescue; [8]): 3.5
- Summer Stress (Tomahawk E tall fescue; [9]): 7.3
- Herbicide damage (Tomahawk E tall fescue; [10]): 2.3
- Herbicide damage % (Tomahawk E tall fescue; [11]): 65.0%
- Turf quality (no herbicide) (Tomahawk E tall fescue; [12]): 2.8
- Herbicide damage (Tomahawk E tall fescue; [12]): 2.5
- Herbicide damage (Pure Gold tall fescue; [3]): 5.3
- Herbicide damage (Pure Gold tall fescue; [4]): 5.5
- Summer Stress (Pure Gold tall fescue; [5]): 5.3
- Herbicide damage % (Pure Gold tall fescue; [6]): 41.3%
- Turf quality (no herbicide) (Pure Gold tall fescue; [6]): 3.8
- Turf quality (no herbicide) (Pure Gold tall fescue; [7]): 4.8
- Turf quality (no herbicide) (Pure Gold tall fescue; [8]): 3.8
- Summer Stress (Pure Gold tall fescue; [9]): 7.3
- Herbicide damage (Pure Gold tall fescue; [10]): 3.3
- Herbicide damage % (Pure Gold tall fescue; [11]): 33.8%
- Turf quality (no herbicide) (Pure Gold tall fescue; [12]): 3.5
- Herbicide damage (Pure Gold tall fescue; [12]): 4.0
- Herbicide damage (Wolfpack tall fescue; [3]): 4.0
- Herbicide damage (Wolfpack tall fescue; [4]): 2.8
- Summer Stress (Wolfpack tall fescue; [5]): 5.5
- Herbicide damage % (Wolfpack tall fescue; [6]): 41.3%
- Turf quality (no herbicide) (Wolfpack tall fescue; [6]): 3.3
- Turf quality (no herbicide) (Wolfpack tall fescue; [7]): 4.8
- Turf quality (no herbicide) (Wolfpack tall fescue; [8]): 4.5
- Summer Stress (Wolfpack tall fescue; [9]): 7.8
- Herbicide damage (Wolfpack tall fescue; [10]): 3.3
- Herbicide damage % (Wolfpack tall fescue; [11]): 52.5%
- Turf quality (no herbicide) (Wolfpack tall fescue; [12]): 3.5
- Herbicide damage (Wolfpack tall fescue; [12]): 3.3
- Herbicide damage (Tomahawk RT tall fescue; [3]): 7.5
- Herbicide damage (Tomahawk RT tall fescue; [4]): 7.3
- Summer Stress (Tomahawk RT tall fescue; [5]): 6.5
- reduction in growth rate (Tomahawk RT tall fescue; [13]): no substantial reduction in growth rate
- yellowing of the grass (Tomahawk RT tall fescue; [13]): only minor amounts of yellowing
- Herbicide damage % (Tomahawk RT tall fescue; [6]): 72.5%
- Turf quality (no herbicide) (Tomahawk RT tall fescue; [6]): 6.3
- Turf quality (no herbicide) (Tomahawk RT tall fescue; [7]): 6.5
- Turf quality (no herbicide) (Tomahawk RT tall fescue; [8]): 6.0
- Summer Stress (Tomahawk RT tall fescue; [9]): 7.8
- recovery of grass plants not killed (Tomahawk RT tall fescue; [14]): complete recovery
- yellowing and retardation of plant growth (Tomahawk RT tall fescue; [14]): more yellowing of the grasses and a substantial retardation of plant growth
- Herbicide damage (Tomahawk RT tall fescue; [10]): 5.3
- Herbicide damage % (Tomahawk RT tall fescue; [11]): 21.3%
- Turf quality (no herbicide) (Tomahawk RT tall fescue; [12]): 4.3
- Herbicide damage (Tomahawk RT tall fescue; [12]): 5.3
- sensitivity to glyphosate herbicide applications (Tomahawk RT tall fescue; ambient temperature of the plants below about 32° C.): more sensitive
- sensitivity to glyphosate (Tomahawk RT tall fescue; applied during the seedling stage, within the first 60-days of planting): more sensitive
- tolerated application of agricultural formulations of glyphosate herbicide (Tomahawk RT tall fescue; depending on time of year, age of the plants and environmental conditions): up to 1 pint per acre
- survivors [2]: 5%
